Patent US20260216354A1, “ANTI-CMET ANTIBODY, ANTIBODY-DRUG CONJUGATE, AND PREPARATION METHOD THEREFOR AND USE THEREOF” (MEDILINK THERAPEUTICS (SUZHOU) CO., LTD., priority 2022, published 2026)

Columns and labels:
SW480 cells = test: In-vitro killing activity Test 1 (CCK8), SW480; type: cell-based, human; settings: 7 days, read-out: EC50 of ADC killing (nM) SW480
Text: (§1) Tumor cells in a good growth status are collected by digestion and centrifugation, SW480 (purchased from ATCC, Cat. No. CCL-228), NCI-H358 (purchased from ATCC, Cat. No. CRL-5807), LS1034 cells (Nanjing Cobioer Biosciences Co., Ltd., Cat. No. CBP60013), NCI-H716 (purchased from ATCC, Cat. No. CCL-251) cells are directly collected by centrifugation, the foregoing cells are all resuspended with RPMI 1640+5% FBS+Ps, and are counted, and 5000 (LS1034 and NCI-H716) or 3000 (SW480 and NCI-H358) cells are plated in each well in a volume of 100 uL; ADCs to be tested are diluted separately with resuspension media corresponding to the foregoing 3 types of cells, starting at 300 µg/mL ([…]) for 3-fold dilution with 11 concentration points, and added into a plate with 100 µL/well, to make the ADCs have a final concentration of 150 µg/mL, for incubation at 37° C. for 5 days (LS1034 and NCI-H358) or 7 days (NCI-H716 and SW480); after the incubation is completed, CCK8 is added with 20 µL/well, for a reaction for 1-3 hours; and values are read out at 450 nm by a microplate reader and imported into Graphpad Prism for curve-fitting.

NCI-H716 cells [1] = test: Flow cell affinity of ADCs, NCI-H716; type: binding, human; settings: flow cytometry
[2] = system: human colon cancer SW480 cell lines; test: In-vivo efficacy in SW480 CDX models; parameters: species or system mouse; settings: 5 mg/kg, i.v., QW*2, SW480 CDX
Text: (§2) To verify the in-vivo efficacy of the anti-human cMet ADC drugs and evaluate the anti-tumor effects of the tested drugs in female Balb/c Nude mouse models subjected to subcutaneous xenografts, 5-6 week old female Balb/c Nude mice (Vital River) are purchased, human non-small cell lung cancer NCI-H358 cells that have grown to the logarithmic growth phase are digested with EDTA and then resuspended with PBS, each mouse is subcutaneously inoculated with 5*10^6 cells, and when the tumor grows to a size of […], intravenous administration is performed once a week with 1 mg/kg or 3 mg/kg each time.
A similar method is used to evaluate the anti-tumor effects of anti-cMet ADC test drugs in female BALB/c nude mouse animal models subjected to subcutaneous xenografts of human colon cancer SW480 cell lines.

[3] = system: human colorectal adenocarcinoma NCI-H716 cell lines; test: In-vivo efficacy in NCI-H716 CDX models; parameters: species or system mouse; settings: i.v., QW*3, NCI-H716 CDX
Text: as §2
A similar method is used to evaluate the anti-tumor effects of cMet ADC test drugs in female BALB/c nude mouse animal models subjected to subcutaneous xenografts of human colorectal adenocarcinoma NCI-H716 cell lines.

NCI-H716 cells [4] = test: In-vitro killing activity Test 1 (CCK8), NCI-H716; type: cell-based, human; settings: 7 days, read-out: EC50 of ADC killing (nM) NCI-H716
Text: as §1

LS1034 cells [5] = test: In-vitro killing activity Test 1 (CCK8), LS1034; type: cell-based, human; settings: 5 days, read-out: EC50 of ADC killing (nM) LS1034
Text: as §1

NCI-H358 cells [6] = test: In-vitro killing activity Test 1 (CCK8), NCI-H358; type: cell-based, human; settings: 5 days, read-out: EC50 of ADC killing (nM) NCI-H358
Text: as §1

LS1034 cells [7] = test: Flow cell affinity of ADCs, LS1034; type: binding, human; settings: flow cytometry
NCI-H69 cells = test: Flow cell affinity of ADCs, NCI-H69; type: binding, human; settings: flow cytometry
[8] = system: human non-small cell lung cancer NCI-H358 cells; test: In-vivo efficacy in NCI-H358 CDX models (Test 1); parameters: species or system mouse; settings: 1 mg/kg, i.v., QW*3, NCI-H358 CDX
Text: as §2

h.cMet-ECD-His [9] = target: T1, h.cMet-ECD-His (Homo sapiens, UniProt P08581); test: ELISA protein affinity of cMET antibodies before and after conjugating into ADCs; type: binding
T1 construct: a human cMet ectodomain recombinant protein (Human HGF R/c-MET Protein, His Tag); purchased Acrobiosystems Co., Ltd. / ACRO Biosystems MET-H5227
Description: Proteins anti-His-Rabbit Fc are coated with the CBS to […], and are blocked with 2% BSA (in PBS) at 37° C. for 2 hours, h.cMet-ECD-His of […] is added for incubation at 37° C. for 2 hours, after 2 hours, antibodies to be tested or ADCs that are gradiently diluted (starting at […] for 3-fold dilution with 11 concentration points) are added for incubation at 37° C. for 2 hours, after 2 hours, HRP-labeled anti-human specific secondary antibodies (Jackson, 115-035-164) are added for incubation at 37° C. for 1 hour, a TMB substrate is added for color development, and after the color development is stopped using HCl of 2M, final products are added into a machine to read out absorbance values at […].

NCI-H358 cells [10] = test: Flow cell affinity of ADCs, NCI-H358; type: binding, human; settings: flow cytometry
h.cMet (cMet-ECD-his) = target: T2, h.cMet (cMet-ECD-his) (Homo sapiens, UniProt P08581); test: ELISA affinity of humanized antibodies to human cMet; type: binding; settings: cMet-ECD-his coated
T2 construct: a human cMet ectodomain recombinant protein (Human HGF R/c-MET Protein, His Tag); purchased Acrobiosystems Co., Ltd. / ACRO Biosystems MET-H5227
Text: […]

MKN45 cells [11] = test: Endocytic activity on MKN45 cells; type: cell-based, human; settings: 10 μg/mL, 37° C.
Description: MKN45 cells are collected by trypsin digestion and centrifugation, incubated with humanized antibodies to be detected of a concentration of 10 μg/mL at 4° C. for 1 hour, and washed 3 times with the PBS, the cells are resuspended with DMEM+10% FBS that has been pre-warmed at 37° C., […], after 3 times of washing with a pre-cooled PBS, 1.2 uL of anti-human APC fluorescent secondary antibodies are added for incubation at 4° C. for 0.5 hours, and after three times of washing with the PBS, the cells are resuspended and added into a machine. Endocytosis rates are calculated according to the following formula: endocytosis rate (%)= ? 1−(an average fluorescence value of a test sample at this time point−an average fluorescence value of a negative control sample at this time point)/(an average fluorescence value of the test sample at 0 hour−an average fluorescence value of the negative control sample at 0 hour) ? * 100.

MKN45 cells [12] = test: Flow affinity of humanized antibodies to MKN45 cells; type: binding, human; settings: flow cytometry
Description: MKN45 cells (Nanjing Cobioer Biosciences Co., Ltd., CBP60488) are collected by trypsin digestion and centrifugation, and are washed three times with a pre-cooled PBS, the cells are resuspended with 1% BSA (in the PBS), and are plated into a 96-well conical bottom plate with 2^10^5 cells (50 ul) per well, anti-cMet humanized antibodies to be tested are gradiently diluted with 1% BSA starting at 20 μg/ml with a 4-fold dilution gradient and 8 concentration points, 50 ul diluted antibodies are mixed well with the cells in the conical bottom plate for incubation at 4° C. for 1 hour, after three times of washing with the pre-cooled PBS, 100 ul of 1% BSA (containing 1 uL anti-human APC fluorescent secondary antibodies, BioLegend, Cat. No. 410712) is added to each well for incubation at 4° C. for 0.5 hours, and after three times of washing with the pre-cooled PBS, the cells are resuspended for detection by a flow cytometer (Beckman, cytoflex).

[13] = system: cynoMet (cyno.cMet-ECD-His); test: ELISA affinity of humanized antibodies to cyno Met; type: binding; settings: cyno.cMet-ECD-His captured
Text: […]

[14] = target: T3, HGF ligand on MKN45 cells (Homo sapiens, UniProt P08581); test: FACS competition of humanized antibodies with HGF ligand on MKN45 cells; type: binding; settings: HGF-His-biotin 50 ng/ml, MKN45
T3 construct: MKN45 cells expressing c-MET antigens; endogenous in cells; host or cells: MKN45
Description: (§3) Therefore, competitive actions of the humanized antibodies on ligand binding and actions of inhibiting HGF-induced ERK phosphorylation are detected.
(§4) MKN45 cells are collected by trypsin digestion and centrifugation, and are washed three times with a pre-cooled PBS, the cells are resuspended with 1% BSA (in PBS), and are plated into a 96-well conical bottom plate with 2^10^5 cells (50 ul) per well, anti-cMet humanized antibodies are gradiently diluted with 1% BSA, starting at 15 μg/ml to a final concentration from 5 μg/ml with a 3-fold dilution gradient and 8 dilution points, 50 ul diluted antibodies are mixed well with the cells in the conical bottom plate, HGF-His-biotin (from Chengdu NB Biolab Co., Ltd.) is diluted with 1% BSA to 150 ng/ml, and is added into the well plate with 50 ul/well, to make a final concentration of ligands of 50 ng/ml, for incubation at 4° C. for 1 hour after fully mixing, after three times of washing with the pre-cooled PBS, 100 ul of 1% BSA (containing 1 uL anti-biotin PE fluorescent secondary antibodies, BioLegend, Cat. No. 405204) is added to each well for incubation at 4° C. for 0.5 hours, and after three times of washing with the pre-cooled PBS, the cells are resuspended and detected by a flow cytometer (Beckman, cytoflex).

[15] = target: T4, (Homo sapiens, UniProt P08581); test: as above; type: binding; settings: HGF-His-biotin 50 ng/ml
T4 construct: MKN45 cells expressing c-MET antigens; endogenous in cells; host or cells: MKN45
Description: as §3, §4

h.cMet-ECD-His [16] = target: T1, h.cMet-ECD-His; test: ForteBio dynamic affinity to h.cMet-ECD-His; type: binding; settings: ProA sensor
Description: Dynamic affinities of the humanized antibodies are assayed through ForteBio. Experimental steps are as follows: 1. sensor preparation: taking out a ProA sensor, and pre-wetting the sensor with a PBST diluent (pH 7.4) for 10 min; 2. sample dilution: separately diluting antibodies that need to be solidified to 5 μg/ml, antigens h.cMet-ECD-His (Acrobiosystems Co., Ltd., Cat. No.: MET-H5227) starting at 500 nM for 2-fold dilution with 5 concentration points and a 0 concentration point set; 3. setting a program, putting a sensor plate and a sample plate away, starting the program, and the sensor being regenerated with a glycine solution of 20 mM (pH 1.7); 4. using Octet analysis software to analyse data.

T1 sequence (P08581 25-932 limits assumed): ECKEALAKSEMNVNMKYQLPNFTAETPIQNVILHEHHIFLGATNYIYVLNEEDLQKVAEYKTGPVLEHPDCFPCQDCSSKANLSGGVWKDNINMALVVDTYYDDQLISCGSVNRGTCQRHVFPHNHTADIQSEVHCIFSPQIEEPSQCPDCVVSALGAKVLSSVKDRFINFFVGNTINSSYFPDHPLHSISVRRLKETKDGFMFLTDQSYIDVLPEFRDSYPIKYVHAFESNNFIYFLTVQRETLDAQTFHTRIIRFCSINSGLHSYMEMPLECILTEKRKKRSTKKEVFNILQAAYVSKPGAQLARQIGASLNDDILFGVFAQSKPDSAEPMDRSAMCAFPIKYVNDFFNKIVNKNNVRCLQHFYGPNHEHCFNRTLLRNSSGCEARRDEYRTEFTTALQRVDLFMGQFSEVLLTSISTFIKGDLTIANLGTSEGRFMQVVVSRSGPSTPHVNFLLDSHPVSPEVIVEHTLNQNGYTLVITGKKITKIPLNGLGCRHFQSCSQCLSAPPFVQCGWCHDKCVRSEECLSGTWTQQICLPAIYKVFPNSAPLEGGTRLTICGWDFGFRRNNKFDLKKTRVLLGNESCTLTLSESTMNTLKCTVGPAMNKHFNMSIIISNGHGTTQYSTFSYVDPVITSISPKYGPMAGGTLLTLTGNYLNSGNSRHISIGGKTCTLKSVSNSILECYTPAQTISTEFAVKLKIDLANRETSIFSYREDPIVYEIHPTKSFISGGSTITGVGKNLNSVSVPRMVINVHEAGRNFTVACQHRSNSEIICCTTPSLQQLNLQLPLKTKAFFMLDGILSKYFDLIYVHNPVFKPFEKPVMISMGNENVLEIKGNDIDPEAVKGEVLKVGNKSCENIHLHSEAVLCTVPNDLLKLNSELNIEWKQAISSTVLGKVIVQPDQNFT
T4 sequence (P08581 25-1390): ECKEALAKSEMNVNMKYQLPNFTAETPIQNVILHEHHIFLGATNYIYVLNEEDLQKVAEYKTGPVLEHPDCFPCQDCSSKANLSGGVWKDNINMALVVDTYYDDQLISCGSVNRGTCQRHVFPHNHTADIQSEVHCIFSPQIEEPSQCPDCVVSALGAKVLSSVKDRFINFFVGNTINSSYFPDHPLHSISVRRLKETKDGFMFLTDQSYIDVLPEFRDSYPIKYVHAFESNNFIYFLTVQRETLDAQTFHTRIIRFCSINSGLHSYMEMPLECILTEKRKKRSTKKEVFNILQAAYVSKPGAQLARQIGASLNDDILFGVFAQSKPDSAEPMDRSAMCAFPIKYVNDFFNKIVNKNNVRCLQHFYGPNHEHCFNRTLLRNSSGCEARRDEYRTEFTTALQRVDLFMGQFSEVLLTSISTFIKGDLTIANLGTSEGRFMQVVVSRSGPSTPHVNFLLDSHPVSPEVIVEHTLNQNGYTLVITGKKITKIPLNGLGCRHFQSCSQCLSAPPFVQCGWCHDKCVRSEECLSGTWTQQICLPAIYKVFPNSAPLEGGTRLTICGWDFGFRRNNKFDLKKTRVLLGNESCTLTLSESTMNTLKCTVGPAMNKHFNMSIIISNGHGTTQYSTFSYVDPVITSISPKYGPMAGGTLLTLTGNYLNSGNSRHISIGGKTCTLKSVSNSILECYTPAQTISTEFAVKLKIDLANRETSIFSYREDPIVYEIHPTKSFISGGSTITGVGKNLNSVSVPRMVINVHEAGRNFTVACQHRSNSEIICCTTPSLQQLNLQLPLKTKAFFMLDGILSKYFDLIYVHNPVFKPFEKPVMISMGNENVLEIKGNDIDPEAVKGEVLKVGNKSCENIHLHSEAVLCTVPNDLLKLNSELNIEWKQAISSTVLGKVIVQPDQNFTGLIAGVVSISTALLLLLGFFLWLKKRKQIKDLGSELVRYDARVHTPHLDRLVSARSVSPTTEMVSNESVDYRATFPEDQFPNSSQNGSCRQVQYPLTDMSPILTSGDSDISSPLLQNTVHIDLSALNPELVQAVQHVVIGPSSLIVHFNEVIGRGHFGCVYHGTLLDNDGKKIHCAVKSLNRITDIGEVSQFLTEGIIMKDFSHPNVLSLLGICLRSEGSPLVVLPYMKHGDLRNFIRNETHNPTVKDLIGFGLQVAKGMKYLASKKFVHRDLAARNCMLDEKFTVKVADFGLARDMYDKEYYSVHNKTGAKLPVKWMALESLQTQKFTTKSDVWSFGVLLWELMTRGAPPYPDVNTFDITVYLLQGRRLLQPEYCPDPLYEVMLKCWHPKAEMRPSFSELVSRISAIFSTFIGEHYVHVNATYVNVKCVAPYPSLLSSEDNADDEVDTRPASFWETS
T3 sequence (P08581 25-1390): as above
T2 sequence (P08581 25-932 limits assumed): as the sequence (P08581 25-932 limits assumed) above

For “ABT700-Vc-MMAE (DAR4): ADC of control antibody ABT700 conjugated to vc-MMAE (CAS No.: 646502-53-6), DAR value 4.0 [reference compound]”, the EC50 (SW480 cells) was 71.6 nM, the EC50 (NCI-H716 cells [1]) was 0.0116 µM and the “NCI-H716 Maximum signal value” (NCI-H716 cells [1]) was 3737. For the same substance, the “TGI (%) on Day 15” value [2] was 15.06%, the “TGI (%) on Day 14” value ([3]; 0.3 mg/kg) was 1.7% and the “TGI (%) on Day 14” value ([3]; 1 mg/kg) was 3.5%. The EC50 (NCI-H716 cells [4]) was 288 nM.

Work on “ABT700-Vc-MMAE (DAR9.7): ADC of control antibody ABT700 conjugated to vc-MMAE (CAS No.: 646502-53-6), DAR value 9.7 [reference compound]” yielded an EC50 (LS1034 cells [5]) of 53.7 nM, an EC50 (NCI-H358 cells [6]) greater than 10000 nM and an EC50 (LS1034 cells [7]) of 0.000852 µM. For the same substance, the “LS1034 Maximum signal value” (LS1034 cells [7]) was 8960, the EC50 (NCI-H69 cells) was 0.000212 µM and the “NCI-H69 Maximum signal value” (NCI-H69 cells) was 8214. For the same substance, the “TGI (%) on Day 14” value [8] was 84.6%, the “EC50” value (h.cMet-ECD-His [9]) was 2.432 mg/L and the EC50 (NCI-H358 cells [10]) was 0.000917 µM. For the same substance, the “NCI-H358 Maximum signal value” (NCI-H358 cells [10]) was 32386.

With “ABT700: control anti-c-Met antibody with a sequence from KEGG, ID: D11307 [reference compound]” the “h.cMet EC50” value (h.cMet (cMet-ECD-his)) was 0.004148 mg/L, the Endocytosis rate % (MKN45 cells [11]; 1 h) was 7.9% and the Endocytosis rate % (MKN45 cells [11]; 2 h) was 19.2%. For the same substance, the Endocytosis rate % (MKN45 cells [11]; 4 h) was 44.5%, the “MKN45 EC50” value (MKN45 cells [12]) was 0.1004 mg/L and the Maximum signal value (MKN45 cells [12]; MKN45) was 70415. For the same substance, the “EC50” value (h.cMet-ECD-His [9]) was 0.005257 mg/L, the “cynoMet EC50” value [13] was 0.1434 mg/L and the “Maximum inhibition rate %” value [14] was 75%. The “MKN45 IC50” value [15] was 0.167 mg/L, the “ka” value (h.cMet-ECD-His [16]) was 169000 M⁻¹ s⁻¹ and the “kdis” value (h.cMet-ECD-His [16]) was 3.91e-07 s⁻¹.
